Test results as given in patent US6375928B1, “Neutrophil stimulating peptides” (Peptech Limited, priority 1990, dated 2002).
Entries after “also recorded” stand apart in the source; their conditions may differ.

Experiments:
monocytes = experiment: Priming of monocytes for a respiratory burst (chemiluminescence); assay type: cell-based; details: 10^6 monocytes/tube/ml, 30 min pre-incubation 37° C.
Description: Peptide 419 (SEQ ID NO. 18) was assayed for its ability to prime monocytes for a respiratory burst. This assay was conducted essentially as described above for neutrophils except that the cells were cultured for 24 hours prior to assay.

ICAM = experiment: Induction of ICAM on human umbilical vein endothelial cells (HUVEC); assay type: cell-based; details: peptide 1 mg, four hours at 37° C. (FIG. 7)
Description: Peptide 419 (SEQ ID NO. 18) was tested for its ability to induce ICAM using the following procedure.
The cells were then washed extensively with PBS containing Ca^++ and Mg^++ and fixed ([…] 0.025% guteraldehyde, overnight, 4° C.). The cells were again washed, and incubated with anti-ICAM antibody (84H10) for 1 hr at room temperature. The cells were washed and incubated for a further 1 hr at room temperature in the presence of rabbit anti-mouse Ig-HRP. Surface expression of Icam was then quantitated using the ABTS substrate by absorption at OD405 nm.

Pseudomonas aeruginosa = experiment: Pseudomonas experiment: chronic lung infection in mice; assay type: in vivo; details: female Swiss mice, chronic Pa lung infection; 0.5 mg peptide tail-vein each day for 3 days from day 12; n=4; p<0.05 vs carrier (5.25)
Description: Chronic lung infection by Pseudomonas aeruginosa (Pa) is common in cystic fibrosis. […] The present inventors reasoned that pre-sensitising neutrophils with TNF intravascularly, prior to their entry into the lung, may overcome this problem. […] The ability of i.v.-injected 419 (SEQ ID NO. 18) to protect against chronic lung injury induced by Pseudomonas was tested. Chronic lung infections were established in 120 14 week female Swiss mice by introducing the bacteria suspended in agar beads (<200 μm diameter) into the lung. Mice were anaesthetised and 30 μl of bead suspension introduced via a polyethylene cannula into the right bronchus through a small incision between the tracheal rings. After recover, animals (n=20) developed a chronic infection followed for at least 10-14 days. Control animals included: sham-operated (n=2); and those inoculated with sterile beads (n=6) or with beads containing fresh, heat-killed Pa (n=5).

human neutrophils [1] = experiment: Chemiluminescence assay: priming of neutrophils for F-met-leu-phe response (respiratory burst); assay type: cell-based; details: for lucigenin dependent chemiluminescence, peak of response: 20 min pretreatment before f-met-leu-phe; for chemiluminescence (repeat experiment, Table 3): peptide + fMLP
Description: Purified human neutrophils were pretreated with peptide for 20 minutes before the addition of f-met-leu-phe. The lucigenin dependent chemiluminescence response, which reflects superoxide production, was then measured. The results obtained are set out in Table 2 and are expressed as mV of lucigenin dependent chemiluminescence and represent the maximal cell activity attained.
Results are expressed as mV of lucigenin dependent chemiluminescence and represent peak of response i.e. the maximal cell activity attained.

P. falciparum = experiment: Ability of peptide-stimulated neutrophils to inhibit in vitro growth of malaria parasites; assay type: cell-based; details: neutrophils incubated with peptide 37° C. 30 minutes; thawed normal, normal and immune serum (FIG. 5)
Description: The ability of neutrophils stimulated with peptides 418 and 419 (SEQ ID Nos. 17 & 18) to inhibit in vitro growth of malaria parasites was assessed.
Briefly, neutrophils were incubated with peptides 418 and 419 (SEQ ID NOs. 17 & 18) at 37° C. for 30 minutes and then washed with HBSS. The neutrophils were then added to a culture of red blood cells infected with P. falciparum. The cultures were then examined microscopically for evidence of parasite death.

neutrophils [2] = experiment: Superoxide formation, cytochrome reduction assay; assay type: cell-based
Excerpt: The effect of peptides 308 and 309 (SEQ ID NOs. 10 & 11) on superoxide formation was examined by the cytochrome reduction assay, according to the procedure of Ferrante, 1989 (Infection and Immunity), 57: 2115-2122). The results, expressed as n moles of O2/5×10^5 cells as set out in Table 6.

human neutrophils [3] = experiment: Chemiluminescence assay: priming of neutrophils for F-met-leu-phe response (respiratory burst); assay type: cell-based; details: peptide alone
neutrophils [4] = experiment: Chemotactic properties, neutrophil migration under agarose; assay type: cell-based
Description: 5 μl of neutrophils (2×10^5 cells) were added to the inner well, with chemotactic agent or control medium added to the outer wells. Migration at various time intervals was then measured.

neutrophils [5] = experiment: Neutrophil degranulation: Vitamin B12 binding protein release (specific granules); assay type: cell-based; details: for Vitamin B12 Binding Protein, Exp. 1 / Vitamin B12 Binding Protein, Exp. 2 / Vitamin B12 Binding Protein, Exp. 3 / Vitamin B12 Binding Protein, Exp. 4: in the presence of CytoB
neutrophils [6] = experiment: Neutrophil degranulation: β-glucuronidase release (azurophilic granules); assay type: cell-based; details: for β-glucuronidase release, Exp. 1 / β-glucuronidase release, Exp. 2 / β-glucuronidase release, Exp. 3 / β-glucuronidase release, Exp. 4: in the presence of CytoB
neutrophils [7] = experiment: Neutrophil random migration out of wells in agarose; assay type: cell-based
Excerpt: Migration of cells is an important property by which cells reach infection sites. Their accumulation at these sites is also dependent on the capacity of inflammatory mediators to inhibit their migration out of the sites.

[8] = with fMLP, 419 100 μg/10^6 monocytes, 50 U TNF or no pre-treatment
[9] = without fMLP, 419 100 μg/10^6 monocytes or 50 U TNF
[10] = towards agent well, 1 × 10^−7 M fMLP, peptide, or 10^3 U/ml TNFα, 2×10^5 neutrophils
[11] = peptide 100 μg/10^6 cells (or HBSS) + fMLP
[12] = peptide 100 μg/10^6 cells, no fMLP

In the case of “P S T H V L I T H T I (PSTHVLITHTI) [Peptide 419]”, the “Peak mV Chemiluminescence, Mean ± S.D.” value (monocytes; [8]) is reported as 240.0 ± 32.527 mV, the “Peak mV Chemiluminescence, experiment 1” value (monocytes; [8]) is reported as 263.0 mV and the “Peak mV Chemiluminescence, experiment 2” value (monocytes; [8]) is reported as 217.0 mV. For the same substance, the “Peak mV Chemiluminescence, Mean ± S.D.” value (monocytes; [9]) was 3.385 ± 1.365 mV, the “Peak mV Chemiluminescence, experiment 1” value (monocytes; [9]) was 2.42 mV and the “Peak mV Chemiluminescence, experiment 2” value (monocytes; [9]) was 4.35 mV. For the same substance, the “induction of ICAM surface expression (in words)” value (ICAM) was “does not induce the cell adhesion molecule ICAM”, the “percentage peripheral consolidation, mean (se)” value (Pseudomonas aeruginosa) was 0.25 (se 0.25) % and the “neutrophil stimulating activity / stimulation of neutrophil respiratory burst (in words)” value (human neutrophils [1]) was “neutrophil stimulating activity”. The “Chemiluminescence mean + sem” value (human neutrophils [1]; 100 μg peptide, priming neutrophils for respiratory burst) was 18.6 ± 0.5 mV and the “inhibition of in vitro growth of malaria parasites by stimulated neutrophils (in words)” value (P. falciparum) was “more effective than TNF”.
For “G L Y L I Y S Q V L F K G Q G (GLYLIYSQVLFKGQG) [Peptide 308]”, the superoxide formation (neutrophils [2]; peptide + fMLP, 10 μg/5 × 10^5 cells) was 5.00 n moles of O2/5×10^5 cells, the superoxide formation (neutrophils [2]; peptide + fMLP, 100 μg/5 × 10^5 cells) was 6.729 n moles of O2/5×10^5 cells and the superoxide formation (neutrophils [2]; peptide alone, 10 μg/5 × 10^5 cells) was 2.78 n moles of O2/5×10^5 cells. The superoxide formation (neutrophils [2]; peptide alone, 100 μg/5 × 10^5 cells) was 4.892 n moles of O2/5×10^5 cells, the “chemiluminescence (repeat experiment, Table 3)” value (human neutrophils [3]; 10 μg/10^6 cells) was 1.00 mV and the “chemiluminescence (repeat experiment, Table 3)” value (human neutrophils [3]; 100 μg/10^6 cells) was 11.76 mV. The “chemotactic properties (in words)” value (neutrophils [4]) was “strongly chemotactic”, the “Migration distance at 1.5 h, Agent” value (neutrophils [4]; [10]) was 0.66 mm and the “Migration distance at 2.5 h, Agent” value (neutrophils [4]; [10]) was 1.41 mm. For the same substance, the “release from specific granules (Vitamin B12 binding protein), in words” value (neutrophils [5]; absence of fMLP) was “decreased the release”, the “Vitamin B12 Binding Protein, Exp. 1” value (neutrophils [5]; [11]) was 35.81 and the “Vitamin B12 Binding Protein, Exp. 2” value (neutrophils [5]; [11]) was 27.59. The “Vitamin B12 Binding Protein, Exp. 3” value (neutrophils [5]; [11]) was 26.55, the “Vitamin B12 Binding Protein, Exp. 4” value (neutrophils [5]; [11]) was 21.51 and the “Vitamin B12 Binding Protein, Exp. 1” value (neutrophils [5]; [12]) was 2.00. The “Vitamin B12 Binding Protein, Exp. 2” value (neutrophils [5]; [12]) was 2.08, the “Vitamin B12 Binding Protein, Exp. 3” value (neutrophils [5]; [12]) was 5.70 and the “Vitamin B12 Binding Protein, Exp. 4” value (neutrophils [5]; [12]) was 2.25. The “release from specific granules (Vitamin B12 binding protein), in words” value (neutrophils [5]; presence of fMLP) was “still apparent following stimulation with fMLP”, the “neutrophil stimulating activity / stimulation of neutrophil respiratory burst (in words)” value (human neutrophils [1]) was “neutrophil stimulating activity” and the “priming of neutrophils for the respiratory burst associated with f-met-leu-phe treatment (in words)” value (human neutrophils [1]) was “found to prime human neutrophils for the respiratory burst; also recorded: particularly potent primer of neutrophils”. The “lucigenin dependent chemiluminescence, peak of response” value (“lucigenin dependent chemiluminescence” for short) (human neutrophils [1]; peptide 1 μg/10^6 cells) was 0.91 mV, the “lucigenin dependent chemiluminescence” value (human neutrophils [1]; peptide 10 μg/10^6 cells) was 4.80 mV and the “lucigenin dependent chemiluminescence” value (human neutrophils [1]; peptide 100 μg/10^6 cells) was 49.52 mV. The “chemiluminescence (repeat experiment, Table 3)” value (human neutrophils [1]; 10 μg/10^6 cells) was 2.74 mV, the “chemiluminescence (repeat experiment, Table 3)” value (human neutrophils [1]; 100 μg/10^6 cells) was 28.56 mV and the “release from azurophilic granules (β-glucuronidase), in words” value (neutrophils [6]; absence of fMLP) was “decreased the release”. The “β-glucuronidase release, Exp. 1” value (neutrophils [6]; [11]) was 17.57%, the “β-glucuronidase release, Exp. 2” value (neutrophils [6]; [11]) was 28.86% and the “β-glucuronidase release, Exp. 3” value (neutrophils [6]; [11]) was 17.86%. For the same substance, the “β-glucuronidase release, Exp. 4” value (neutrophils [6]; [11]) was 18.20%, the “β-glucuronidase release, Exp. 1” value (neutrophils [6]; [12]) was 0.8% and the “β-glucuronidase release, Exp. 2” value (neutrophils [6]; [12]) was 0.65%. The “β-glucuronidase release, Exp. 3” value (neutrophils [6]; [12]) was 2.76%, the “β-glucuronidase release, Exp. 4” value (neutrophils [6]; [12]) was 0.72% and the “release from azurophilic granules (β-glucuronidase), in words” value (neutrophils [6]; presence of fMLP) was “still apparent following stimulation with fMLP”. For the same substance, the “effect on neutrophil random migration (in words)” value (neutrophils [7]) was “potent inhibitors of neutrophil migration”, the “Inhibition of Migration” value (neutrophils [7]; 10 μg/10^6 cells) was 0% and the “Inhibition of Migration” value (neutrophils [7]; 100 μg/10^6 cells) was 100%.
